From PubChem BioAssay (NCI)
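The compound was tested at five concentrations on cells cultured in 96-well plates, with a 48-hour exposure period. Abbreviation: GI50, concentration required for 50% inhibition of growth. TGI is the concentration that stops growth completely.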

Legend:
Assay in all cases: DTP human tumour cell line panel, 48 h
[1] = system: ACHN renal
[2] = system: COLO 205 colon
[3] = system: DU-145 prostate
[4] = system: EKVX NSCLC
[5] = system: HOP-92 NSCLC
[6] = system: MOLT-4 leukemia
[7] = system: SF-295 CNS
[8] = system: SK-MEL-2 melanoma
[9] = system: SK-MEL-28 melanoma
[10] = system: SN12C renal

| SMILES | TGI [1] | TGI [2] | TGI [3] | TGI [4] | TGI [5] | TGI [6] | TGI [7] | TGI [8] | TGI [9] | TGI [10] | GI50 [2] | GI50 [9] | GI50 [3] | GI50 [10] |
| --- | --- | --- | --- | --- | --- | --- | --- | --- | --- | --- | --- | --- | --- | --- |
| O=[N+]([O-])c1cccc(N=Nc2c(O)c(S(=O)(=O)O)cc3cc(S(=O)(=O)O)ccc23)c1 | > 100 µM | > 100 µM | > 100 µM | > 100 µM | > 100 µM | > 100 µM | > 100 µM | > 100 µM | > 100 µM | > 100 µM | – | – | – | – |
| C#CCn1c(=O)c(C)cn(/C(=C\C(=O)OCC)C(=O)OCC)c1=O | 3.22 µM | 3.12 µM | 35 µM | 30.1 µM | 5.17 µM | > 26.5 µM | 42.3 µM | 32.8 µM | 31 µM | 33.9 µM | 1.52 µM | 14.5 µM | – | – |
| CN1C(=O)C(O)C[C@@H]1c1ccccc1 (some centres undefined) | > 100 µM | > 100 µM | > 100 µM | > 100 µM | > 100 µM | > 100 µM | > 100 µM | > 100 µM | > 100 µM | > 100 µM | – | – | – | – |
| CC(Oc1ccccc1Cl)C(=O)NN1C(=O)CSC1c1ccccc1 (centres undefined) | > 100 µM | > 100 µM | > 100 µM | > 100 µM | > 100 µM | > 100 µM | > 100 µM | > 100 µM | > 100 µM | > 100 µM | – | – | – | – |
| CC(C)C(C/C=C1\CC(CO)(COC(=O)C2CCCCC2)OC1=O)C(C)C (centres undefined) | 32.3 µM | 23.6 µM | 26.9 µM | 41.2 µM | 37.5 µM | 39.8 µM | 33.2 µM | > 100 µM | 33.8 µM | 31.2 µM | – | – | – | – |
| O=C(c1cccs1)N1CCN(C(=O)c2cccs2)C1=S | 20.5 µM | 22.4 µM | 7.7 µM | 27.8 µM | 20.7 µM | 8.18 µM | 30.5 µM | 28.3 µM | 19.2 µM | 10.1 µM | – | – | – | – |
| CCN(CC)C(=S)SS(=O)(=O)c1cccc(N)c1 | > 100 µM | > 100 µM | > 100 µM | > 100 µM | > 100 µM | > 100 µM | > 100 µM | > 100 µM | > 100 µM | > 100 µM | – | – | – | – |
| O=C(O)COc1cc(-c2ccccc2)nc2cc(F)ccc12 | > 100 µM | > 100 µM | > 100 µM | > 100 µM | > 100 µM | > 100 µM | > 100 µM | > 100 µM | > 100 µM | > 100 µM | – | – | – | – |
| O=C(N/N=C/C=C/c1ccccc1)c1ccccc1Nc1ccccc1C(=O)N/N=C/C=C/c1ccccc1 | > 100 µM | > 100 µM | > 100 µM | > 100 µM | > 100 µM | > 100 µM | > 100 µM | > 100 µM | > 100 µM | > 100 µM | – | – | – | – |
| CN(C)CCCNc1ccc2nnn3c4ccc(O)cc4c(=O)c1c23 | 13.5 µM | 15.8 µM | 18.6 µM | 25.3 µM | 20.7 µM | 9.3 µM | 18.7 µM | 26.3 µM | 22.5 µM | 18.8 µM | – | – | – | – |
| O=c1[nH]n(Cc2ccccc2)c2ccc([N+](=O)[O-])cc12 | > 100 µM | > 100 µM | > 100 µM | > 100 µM | > 100 µM | > 100 µM | > 100 µM | > 100 µM | > 100 µM | > 100 µM | – | – | – | – |
| Cc1c(C(=O)OCc2ccccc2)[n+](=O)c2cc(Cl)c(Cl)cc2n1[O-] | 53.7 µM | 32.2 µM | 27.6 µM | 28.6 µM | 20 µM | 21.5 µM | 37.4 µM | 38.6 µM | 64.8 µM | 45.3 µM | – | – | – | – |
| COc1cc(C2c3cc4c(cc3C3OC[C@@H]2C3CO)OCO4)cc(OC)c1OC (some centres undefined) | > 100 µM | 33.6 µM | > 100 µM | > 100 µM | > 100 µM | > 100 µM | > 100 µM | > 100 µM | > 100 µM | > 100 µM | – | – | 30.4 µM | 59.4 µM |
| CC1(C)CC(=O)C2(CC(CSc3ccccc3)C(CS(=O)(=O)c3ccccc3)C2)C(=O)C1 (centres undefined) | > 100 µM | > 100 µM | > 100 µM | > 100 µM | > 100 µM | > 100 µM | > 100 µM | > 100 µM | > 100 µM | > 100 µM | – | – | – | – |
| CCCCCCCCCCCCCCCCCCNc1nc(=O)n(C2CC(O)C(COP(=O)(O)O)O2)cc1F (centres undefined) | > 100 µM | > 100 µM | > 100 µM | > 100 µM | > 100 µM | > 96.1 µM | > 100 µM | > 100 µM | > 100 µM | > 100 µM | – | – | – | – |
| Cc1cc(OC(=O)NCn2cc(-c3ccccc3)nn2)ccc1Cl | > 100 µM | > 100 µM | > 100 µM | > 100 µM | > 100 µM | > 100 µM | > 100 µM | > 100 µM | > 100 µM | > 100 µM | – | – | – | – |
| COc1ccc(OC)c(SC(CC(=O)c2ccccc2)c2ccccc2)c1 (centres undefined) | 39 µM | 37.3 µM | 21.9 µM | 31.1 µM | > 100 µM | > 100 µM | 31.6 µM | 36.1 µM | 32.6 µM | 40.6 µM | – | – | – | – |
